Read-outs that look alike come from different tables or passages of the source.
Assays:
CECR2 bromodomain = target: T1, CECR2 bromodomain (Homo sapiens, UniProt Q9BXF3); experiment: AlphaScreen assay with CECR2 bromodomain and biotinylated histone H4 KAc5,8,12,16 peptide; type: binding
T1 construct: His; purchased Reaction Biology RD-11-210

BRD9 bromodomain = target: T2, BRD9 bromodomain (Homo sapiens, UniProt Q9H8M2); experiment: AlphaScreen assay with BRD9 bromodomain and biotinylated histone H4 KAc5,8,12,16 peptide; type: binding
T2 construct: His; purchased Reaction Biology RD-11-214
T2 sequence (Q9H8M2 136-240 limits assumed): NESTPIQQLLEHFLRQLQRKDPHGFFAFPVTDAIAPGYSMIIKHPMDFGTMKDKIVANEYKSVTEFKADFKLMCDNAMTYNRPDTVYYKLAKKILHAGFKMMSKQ

[1] = target: T3, Nluc-BPTF-BD fusion construct (Homo sapiens, UniProt Q12830+Q96SW2); experiment: In-cell NanoBRET CRBN ternary complex assay with Nluc-BPTF-BD; type: cell-based; settings: 1 μM degrader, C-terminal Nluc-BPTF-BD fusion, HEK293T cells
T3 construct: form ternary complexes with nanoluciferase-fused BPTF bromodomain and full-length BRD9 constructs; expressed in transfected cells; host or cells: HEK293T
Description: In-cell NanoBRET assay. NanoBRET experiments were carried out using the NanoBRET CRBN Ternary Complex Starter Kit (Cat #ND2720) according to the manufacturer's protocol (Promega NanoBRET™ CRBN Ternary Complex Assay TM615).^38 All assays were run in 384-well format. HEK293T cells were transfected to a 1:100 donor:acceptor (Nluc:Halotag vectors) ratio for both BPTF-BD and BRD9-FL vectors (see supporting information for the design of plasmids). Cells were re-plated, treated with the HaloTag 618 Ligand and treated with compounds as described in the manufacturer's procedure.
Cell culture. HEK293T cells were grown in a humidified 5% CO2 environment at 37° C. Cells were cultured in DMEM media (high-glucose, Gibco Cat. #11965-092) supplemented with 10% fetal-bovine serum (Cellgro Cat. #QB-110-001-101), Penicillin-Streptomycin (50 U/mL penicillin, 50 μg/mL streptomycin, Cellgro Cat. #15140-122). The cells were passaged to a 1:20 dilution by decanting suspended cells and dissociating adherent cells from cell culture flasks in 0.25% trypsin/EDTA (Gibco, Cat. #25200056) after 1 min incubation.
In-cell ternary complex formation and degradation of BPTF-BD via NanoBRET. After establishing in vitro ternary complex formation, a NanoBRET ternary complex assay was optimized to rank-order degraders in cells (FIG. 4A). This assay also serves as an indirect indicator of cellular permeability, which is often a major challenge for heterobifunctional degraders. Both N- and C-terminal fusions of Nanoluciferase (Nluc) and BPTF-BD with 11-amino acid linkers were designed. The vectors were transfected into HEK293T cells and compounds 4 and 5 were dosed at 1 μM for 2 h in cells pre-treated with the proteosome inhibitor MG-132. […] The C-terminal Nluc-BPTF-BD fusion construct was therefore used for subsequent experiments. Degraders were tested for ternary complex formation at 1 μM (FIG. 4B).

[2] = target: T4, GST-BRD9 and His-tagged CRBN-DDB1 (Homo sapiens, UniProt Q96SW2+Q9H8M2); experiment: In vitro AlphaScreen ternary complex assay, BRD9; type: binding; settings: GST-BRD9, His-CRBN-DDB1, varying degrader concentrations
T4 construct: GST-tagged bromodomains (BPTF, BRD9, CECR2 and PCAF) and His-tagged CRBN; purchased Reactive Biology Corp RD-11-187
Description: General procedure for in vitro ternary complex assay. His-tagged CRBN-DDB1 protein was prepared following the procedure reported by Matyskiela et al. GST-BPTF was purchased from BPS Biosciences (cat #31134), while GST-BRD9, GST-CECR2, and GST-PCAF were purchased from Reactive Biology Corp (cat #RD-11-187, cat #RD-11-194, and cat #RD-11-259 respectively). All reagents were diluted in assay buffer comprising 25 mM HEPES, pH 7.4, 100 mM NaCl, 0.1% BSA, and 0.05% tween20. An ECHO 650 (Labcyte Inc.) acoustic dispenser was used to generate a 10-point dilution curve from DMSO stocks of the degraders directly into a 384-well OptiPlate (PerkinElmer, Cat. #6007290) giving a final DMSO concentration of 0.3%. […]
Briefly, to a 384-well OptiPlate containing 5× degrader in triplicate was added 5 μL of a 5× solution of His-CRBN-DDB1 and GST-tagged bromodomain and then incubated at rt for 1 h. […] The plate was sealed and mixed on a MixMate (eppendorf) for 1 h at rt and then luminescence detection was collected on an Envision plate reader (PerkinElmer).
In vitro ternary complex formation via AlphaScreen. […] The AlphaScreen signal was measured at varying degrader concentrations and the amplitude of the maximum point on the curve was used as an indicator of ternary complex stability.

[3] = target: T5, GST-PCAF and His-tagged CRBN-DDB1 (Homo sapiens, UniProt Q92831+Q96SW2); experiment: In vitro AlphaScreen ternary complex assay, PCAF; type: binding; settings: His-CRBN-DDB1, varying degrader concentrations
T5 construct: GST-tagged bromodomains (BPTF, BRD9, CECR2 and PCAF) and His-tagged CRBN; purchased Reactive Biology Corp RD-11-259
Description: (§1) General procedure for in vitro ternary complex assay. His-tagged CRBN-DDB1 protein was prepared following the procedure reported by Matyskiela et al. GST-BPTF was purchased from BPS Biosciences (cat #31134), while GST-BRD9, GST-CECR2, and GST-PCAF were purchased from Reactive Biology Corp (cat #RD-11-187, cat #RD-11-194, and cat #RD-11-259 respectively). All reagents were diluted in assay buffer comprising 25 mM HEPES, pH 7.4, 100 mM NaCl, 0.1% BSA, and 0.05% tween20. An ECHO 650 (Labcyte Inc.) acoustic dispenser was used to generate a 10-point dilution curve from DMSO stocks of the degraders directly into a 384-well OptiPlate (PerkinElmer, Cat. #6007290) giving a final DMSO concentration of 0.3%. AlphaScreen glutathione coated donor and nickel chelate acceptor beads were purchased from PerkinElmer (Cat. #6765300 and 6760141 respectively).
(§2) Briefly, to a 384-well OptiPlate containing 5× degrader in triplicate was added 5 μL of a 5× solution of His-CRBN-DDB1 and GST-tagged bromodomain and then incubated at rt for 1 h. After incubation, 10 μL nickel chelate acceptor (20 μL/mL final concentration) and 10 μL glutathione donor beads (20 μL/mL final concentration) were added. The plate was sealed and mixed on a MixMate (eppendorf) for 1 h at rt and then luminescence detection was collected on an Envision plate reader (PerkinElmer).
(§3) In vitro ternary complex formation via AlphaScreen. The stability of the ternary complex is critical for degradation by heterobifunctional molecules. A ternary complex formation in vitro using an AlphaScreen-based assay (FIG. 3A) was therefore studied. In this experiment, anti-GST donor beads and nickel acceptor beads were paired with GST-tagged bromodomains (BPTF, BRD9, CECR2 and PCAF) and His-tagged CRBN. The AlphaScreen signal was measured at varying degrader concentrations and the amplitude of the maximum point on the curve was used as an indicator of ternary complex stability.

BPTF bromodomain = target: T6, BPTF bromodomain (Homo sapiens, UniProt Q12830); experiment: AlphaScreen assay with BPTF bromodomain and biotinylated histone H4 KAc5,8,12,16 peptide; type: binding; settings: average of two technical replicates with N = 3 unless otherwise indicated, read-out: BPTF BD IC50
T6 construct: His9-tagged BPTF bromodomain was expressed and purified as described previously; His9; made in house
Description: General procedure for AlphaScreen assay. His9-tagged BPTF bromodomain was expressed and purified as described previously. […] The AlphaScreen assay procedures were adapted from the manufacturers protocol (PerkinElmer, USA). […] The biotinylated Histone H4 KAc5,8,12,16 peptide was purchased from EpiCypher (Cat. #12-0034), with the sequence:
Ac-SGRGK(Ac)GGK(Ac)GLGK(Ac)GGAK(Ac)RHRKVLR-Peg(Biot).
All reagents were diluted in the assay buffer (50 mM HEPES-Na^+ (ChemImpex), 100 mM NaCl (SigmaAldrich), 0.05% CHAPS (RPI), 0.1% BSA (SigmaAldrich), pH 7.4).
3-fold serial dilutions were prepared with varying concentrations of the compounds and a fixed protein concentration, keeping the final DMSO concentration at 0.25%. […] 5 μL of the biotinylated peptide solution was then added to the wells. 10 μL of pre-mixed nickel chelate acceptor beads and streptavidin donor beads were added to each well under low light conditions (<100 lux), to a final concentration of 20 μg/mL. The plate was sealed and incubated for 30 minutes in the dark. It was then read in AlphaScreen mode (excitation time=100 ms, integration time=300 ms, output: counts/s) using a Tecan Spark plate reader. Each compound was run in two technical replicates and the data was normalized against 0 μM inhibitor signal to obtain the % normalized AlphaScreen signal. IC50 values were calculated in GraphPad Prism 9 using a sigmoidal 4-parameter logistic (4PL) curve fit.
To validate our chosen exit vectors, an AlphaScreen assay was used to measure binding affinity of our degraders with the BPTF bromodomain.

[4] = target: T7, GST-CECR2 and His-tagged CRBN-DDB1 (Homo sapiens, UniProt Q96SW2+Q9BXF3); experiment: In vitro AlphaScreen ternary complex assay, CECR2; type: binding; settings: GST-CECR2, His-CRBN-DDB1, varying degrader concentrations
T7 construct: GST-tagged bromodomains (BPTF, BRD9, CECR2 and PCAF) and His-tagged CRBN; purchased Reactive Biology Corp RD-11-194
Description: as §1, §2, §3

[5] = AlphaScreen, average of two technical replicates with N = 2 unless otherwise indicated, read-out: CECR2 BD IC50
[6] = AlphaScreen, average of two technical replicates with N = 2 unless otherwise indicated, read-out: BRD9 BD IC50

T1 sequence (Q9BXF3 434-538 limits assumed): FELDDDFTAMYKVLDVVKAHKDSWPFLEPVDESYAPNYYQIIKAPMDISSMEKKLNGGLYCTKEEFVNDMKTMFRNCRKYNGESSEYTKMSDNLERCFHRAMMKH
T5 sequence (Q92831 723-827 limits assumed): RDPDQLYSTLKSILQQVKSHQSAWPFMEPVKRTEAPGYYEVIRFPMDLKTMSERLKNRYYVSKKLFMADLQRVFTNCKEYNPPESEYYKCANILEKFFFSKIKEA
T5 sequence (Q96SW2 40-442 limits assumed): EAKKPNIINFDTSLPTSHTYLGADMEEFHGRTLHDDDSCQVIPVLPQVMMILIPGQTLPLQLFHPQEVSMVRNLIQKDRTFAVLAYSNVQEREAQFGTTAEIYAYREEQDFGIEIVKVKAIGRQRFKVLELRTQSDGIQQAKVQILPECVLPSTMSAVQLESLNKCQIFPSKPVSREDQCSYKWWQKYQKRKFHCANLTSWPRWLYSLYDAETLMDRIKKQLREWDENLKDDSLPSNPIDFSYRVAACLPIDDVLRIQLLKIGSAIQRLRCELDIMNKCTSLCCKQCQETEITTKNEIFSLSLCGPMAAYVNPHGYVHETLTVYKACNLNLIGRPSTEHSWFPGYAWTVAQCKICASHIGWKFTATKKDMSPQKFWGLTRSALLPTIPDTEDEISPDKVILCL
T5 sequence (Q16531 whole entry partner): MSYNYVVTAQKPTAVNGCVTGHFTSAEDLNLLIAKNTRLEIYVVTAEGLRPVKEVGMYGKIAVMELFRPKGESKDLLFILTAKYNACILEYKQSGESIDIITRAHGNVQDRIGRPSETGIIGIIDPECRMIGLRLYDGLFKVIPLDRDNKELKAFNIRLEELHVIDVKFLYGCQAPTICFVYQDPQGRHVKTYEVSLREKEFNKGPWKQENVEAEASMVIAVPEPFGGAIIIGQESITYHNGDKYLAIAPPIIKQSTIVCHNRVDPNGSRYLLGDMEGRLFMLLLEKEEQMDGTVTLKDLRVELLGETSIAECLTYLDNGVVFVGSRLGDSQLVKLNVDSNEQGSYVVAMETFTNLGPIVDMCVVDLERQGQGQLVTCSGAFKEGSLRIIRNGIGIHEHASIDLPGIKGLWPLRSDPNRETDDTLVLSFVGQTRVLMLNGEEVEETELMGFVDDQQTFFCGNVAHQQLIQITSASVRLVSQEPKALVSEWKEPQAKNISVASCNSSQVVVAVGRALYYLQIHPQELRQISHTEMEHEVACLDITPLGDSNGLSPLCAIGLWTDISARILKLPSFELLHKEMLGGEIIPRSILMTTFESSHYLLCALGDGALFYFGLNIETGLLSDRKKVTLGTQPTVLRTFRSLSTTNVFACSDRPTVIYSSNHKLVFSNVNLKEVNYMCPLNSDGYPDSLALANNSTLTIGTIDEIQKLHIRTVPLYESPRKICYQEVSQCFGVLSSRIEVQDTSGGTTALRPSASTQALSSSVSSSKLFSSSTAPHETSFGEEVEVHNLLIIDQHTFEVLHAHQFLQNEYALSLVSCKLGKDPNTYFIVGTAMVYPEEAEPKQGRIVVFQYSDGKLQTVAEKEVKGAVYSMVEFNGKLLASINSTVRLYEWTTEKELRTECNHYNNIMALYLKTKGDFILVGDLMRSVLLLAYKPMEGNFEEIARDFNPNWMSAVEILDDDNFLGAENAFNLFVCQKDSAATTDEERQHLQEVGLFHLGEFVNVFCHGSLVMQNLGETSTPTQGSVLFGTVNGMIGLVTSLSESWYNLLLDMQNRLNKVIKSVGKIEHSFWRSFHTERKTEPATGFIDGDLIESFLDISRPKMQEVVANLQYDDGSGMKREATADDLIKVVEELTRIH
T7 sequence (Q9BXF3 434-538 limits assumed): as the sequence (Q9BXF3 434-538 limits assumed) above
T7 sequence (Q96SW2 40-442 limits assumed): as the sequence (Q96SW2 40-442 limits assumed) above
T7 sequence (Q16531 whole entry partner): as the sequence (Q16531 whole entry partner) above
T3 sequence (Q16531 whole entry, the tested form may be a part): as the sequence (Q16531 whole entry partner) above
T3 sequence (Q96SW2 whole entry, the tested form may be a part): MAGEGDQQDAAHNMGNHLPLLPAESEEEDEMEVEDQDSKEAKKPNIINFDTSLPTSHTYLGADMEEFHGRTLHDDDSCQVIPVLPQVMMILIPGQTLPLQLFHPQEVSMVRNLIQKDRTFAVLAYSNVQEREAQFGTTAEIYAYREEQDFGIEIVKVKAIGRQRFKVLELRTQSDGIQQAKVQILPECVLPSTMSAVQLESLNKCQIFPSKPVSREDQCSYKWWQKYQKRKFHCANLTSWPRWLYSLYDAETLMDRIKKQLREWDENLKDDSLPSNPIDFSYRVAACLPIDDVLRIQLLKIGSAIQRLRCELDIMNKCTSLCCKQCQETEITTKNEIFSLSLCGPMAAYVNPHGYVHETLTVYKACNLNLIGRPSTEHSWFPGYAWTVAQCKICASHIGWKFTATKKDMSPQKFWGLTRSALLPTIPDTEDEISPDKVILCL
T4 sequence (Q96SW2 40-442 limits assumed, one chain of several): as the sequence (Q96SW2 40-442 limits assumed) above
T4 sequence (Q16531 whole entry partner, one chain of several): as the sequence (Q16531 whole entry partner) above

Row | Structure (SMILES) | IC50 (CECR2 bromodomain) | IC50 (BRD9 bromodomain) | IC50 (CECR2 bromodomain; [5]) | IC50 (BRD9 bromodomain; [6]) | BRET ratio, fold increase over DMSO (in-cell ternary complex formation) [1] | Ternary complex formation with BRD9 (AlphaScreen signal amplitude) [2] | Ternary complex formation with PCAF (AlphaScreen signal amplitude) [3] | IC50 (BPTF bromodomain) | Ternary complex formation with CECR2 (AlphaScreen signal amplitude) [4]
1 | Cn1ncc(Nc2ccc3c(c2)CCNC3)c(Cl)c1=O [Compound 1] | 1670 nM | 556 nM |  |  |  |  |  |  | 
2 | Cn1ncc(Nc2ccc3c(c2)CNCC3)c(Cl)c1=O [Compound 2] |  |  | 1300 nM | 300 nM |  |  |  |  | 
3 | Cn1ncc(Nc2ccc3c(c2)CCN(CCCCCCNC(=O)COc2cccc4c2C(=O)N(C2CCC(=O)NC2=O)C4=O)C3)c(Cl)c1=O (centres unmarked) [Compound 3] |  |  | 53 nM | 21 nM | 3.5 fold | drop in signal | drop in signal | 24 ± 9 nM | drop in signal
